Active and inactive are the calls of the source. The calls are words filed in the database; no cut-off is given here.
Assays:
[1] = Toxicity in BALB/c mouse xenografted with mouse CT26.WT assessed as pathological changes in liver at 100 mg/kg, ip twice daily and measured after 14 days by hematoxylin and eosin staining based microscopic analysis; assay type: organism-based; conditions: in vivo, 336 h, time 14 day
CT26.WT [2] = assay: Anti-tumor activity against mouse CT26.WT xenografted in BALB/c mouse assessed as decrease in tumor weight at 100 mg/kg, ip twice daily and measured upto 14 days relative to control; assay type: functional, organism-based; conditions: time <= 14.0 day
HGC-27 [3] = assay: Induction of apoptosis in human HGC-27 cells assessed as increase in cleaved caspase-9 expression at 1.1 to 10 uM incubated for 24 hrs by western blot assay; assay type: functional, cell-based; conditions: dose 1.1-10 µM
CT26.WT [4] = assay: Anti-tumor activity against mouse CT26.WT xenografted in BALB/c mouse assessed as increase in cleaved caspase-3 expression level at 100 mg/kg, ip twice daily and measured after 14 days by immunohistochemical analysis; assay type: functional, organism-based; conditions: time 14.0 day
[5] = Half in Sprague-Dawley rat at 100 mg/kg, ip and measured upto 8 hrs by LC-MS/MS analysis; assay type: ADME, organism-based; conditions: in vivo
RAW264.7 [6] = assay: Antiinflammatory activity in mouse RAW264.7 cells assessed as reduction in LPS-induced NF-kappaB nuclear translocation at 6.6 uM incubated for 1 hrs followed by LPS stimulation for 1 hrs by DAPI staining based immunofluorescence assay; assay type: functional, cell-based; conditions: time 2.0 hrs
RAW264.7 [7] = assay: Cytotoxicity against mouse RAW264.7 cells assessed as reduction in cell viability at <=11.11 for 24 hrs by MTT assay; assay type: toxicity, cell-based; conditions: raw264.7, 24 h
[8] = AUC (0 to t) in Sprague-Dawley rat at 100 mg/kg, ip and measured upto 8 hrs by LC-MS/MS analysis; assay type: ADME, organism-based; set-up: dose 100 mg/kg, time < 8 hrs, route ip; conditions: in vivo
RKO [9] = assay: Induction of apoptosis in human RKO cells assessed as increase in Bax/Bcl-2 ratio expression at 1.1 to 10 uM incubated for 24 hrs by western blot assay; assay type: functional, cell-based; conditions: dose 1.1-10 µM
[10] = AUC (0 to infinity) in Sprague-Dawley rat at 100 mg/kg, ip and measured upto 8 hrs by LC-MS/MS analysis; assay type: ADME, organism-based; set-up: dose 100 mg/kg, time < 8 hrs, route ip; conditions: in vivo
RKO [11] = assay: Induction of apoptosis in human RKO cells assessed as increase in caspase-3 activity at 10 uM incubated for 36 hrs by flow cytometry (Rvb= 1.08%); assay type: functional
HGC-27 [12] = assay: Effect on cell morphology in human HGC-27 cells assessed as contracted nucleus at 10 uM incubated for 48 hrs by giemsa staining based microscopic analysis; assay type: functional
RKO [13] = assay: Antiproliferative activity against human RKO cells assessed as reduction in cell proliferation incubated for 48 hrs by MTT assay; assay type: functional, cell-based
[14] = Acute toxicity in Kunming mouse assessed as behavioral changes at 100 mg/kg,ip and measured upto 14 days; assay type: organism-based; conditions: in vivo, 336 h, time < 14 day
HGC-27 [15] = assay: Induction of apoptosis in human HGC-27 cells assessed as increase in cytochrome C level at 1.1 to 10 uM incubated for 24 hrs by western blot assay; assay type: functional, cell-based; conditions: dose 1.1-10 µM
HGC-27 [16] = assay: Effect on cell morphology in human HGC-27 cells assessed as lose of adherence at 10 uM incubated for 48 hrs by giemsa staining based microscopic analysis; assay type: functional
DNA topoisomerase 1 = target: T1, DNA topoisomerase 1 (Homo sapiens, UniProt P11387); assay: Inhibition of human topoisomerase I assessed as DNA relaxation using DNA pBR322 as substrate incubated for 30 mins by ethidium bromide staining based agarose gel electrophoresis
T1 sequence (P11387 whole entry): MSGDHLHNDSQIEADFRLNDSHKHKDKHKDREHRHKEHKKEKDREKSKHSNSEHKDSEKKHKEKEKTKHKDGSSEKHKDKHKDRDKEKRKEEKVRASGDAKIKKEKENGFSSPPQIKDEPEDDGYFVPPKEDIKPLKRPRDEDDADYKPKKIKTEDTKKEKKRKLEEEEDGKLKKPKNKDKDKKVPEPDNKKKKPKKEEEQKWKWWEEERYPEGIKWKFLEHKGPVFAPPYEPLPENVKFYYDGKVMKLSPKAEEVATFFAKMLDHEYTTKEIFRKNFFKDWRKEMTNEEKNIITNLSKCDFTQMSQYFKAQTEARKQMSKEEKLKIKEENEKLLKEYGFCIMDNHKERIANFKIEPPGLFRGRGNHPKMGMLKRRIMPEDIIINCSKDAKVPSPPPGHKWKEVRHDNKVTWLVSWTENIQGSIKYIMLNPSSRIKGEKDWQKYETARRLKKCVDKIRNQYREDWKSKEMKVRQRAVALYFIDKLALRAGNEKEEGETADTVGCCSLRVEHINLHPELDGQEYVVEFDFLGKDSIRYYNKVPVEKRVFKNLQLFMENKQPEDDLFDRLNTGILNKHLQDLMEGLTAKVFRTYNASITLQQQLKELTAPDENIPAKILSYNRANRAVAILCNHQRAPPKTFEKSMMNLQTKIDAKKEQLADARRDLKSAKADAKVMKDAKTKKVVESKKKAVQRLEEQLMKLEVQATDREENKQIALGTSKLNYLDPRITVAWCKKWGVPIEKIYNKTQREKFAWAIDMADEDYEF

[17] = Toxicity in BALB/c mouse xenografted with mouse CT26.WT assessed as pathological changes in lung at 100 mg/kg, ip twice daily and measured after 14 days by hematoxylin and eosin staining based microscopic analysis; assay type: organism-based; conditions: in vivo, 336 h, time 14 day
RAW264.7 [18] = assay: Antiinflammatory activity against LPS-stimulated mouse RAW264.7 cells assessed decrease in IL-1beta release at 6.6 uM incubated for 1 hrs followed by LPS stimulation and measured after 24 hrs by ELISA relative to control; assay type: functional, cell-based; conditions: time 25.0 hrs
HGC-27 [19] = assay: Antiproliferative activity against human HGC-27 cells assessed as clone formation at 0.37 to 3.3 uM incubated for 4 days by crystal violet staining based analysis; assay type: functional, cell-based; conditions: dose 0.37-3.3 µM, time 4.0 day
RKO [20] = assay: Induction of apoptosis in human RKO cells assessed as increase in cytochrome C level at 1.1 to 10 uM incubated for 24 hrs by western blot assay; assay type: functional, cell-based; conditions: dose 1.1-10 µM
RKO [21] = assay: Anti-migration activity against human RKO cells assessed as inhibition of cell migration at 0.37 uM and measured after 24 hrs by wound healing assay; assay type: functional, cell-based
CT26.WT [22] = assay: Anti-tumor activity against mouse CT26.WT xenografted in BALB/c mouse assessed as increase in apoptosis at 100 mg/kg, ip twice daily and measured after 14 days by TUNEL staining based assay; assay type: functional, organism-based; conditions: time 14.0 day
RKO [23] = assay: Induction of cell cycle arrest in human RKO cells assessed as accumulation at G2/M phase at 3.3 to 10 uM for 24 hrs by propidium iodide staining based flow cytometry; assay type: functional; conditions: dose 3.3-10 µM
[24] = Toxicity in BALB/c mouse xenografted with mouse CT26.WT assessed as pathological changes in kidney at 100 mg/kg, ip twice daily and measured after 14 days by hematoxylin and eosin staining based microscopic analysis; assay type: organism-based; conditions: in vivo, 336 h, time 14 day
RKO [25] = assay: Induction of apoptosis in human RKO cells assessed as increase in caspase-3 activity at 1.1 uM incubated for 36 hrs by flow cytometry (Rvb= 1.08%); assay type: functional
RKO [26] = assay: Antiproliferative activity against human RKO cells assessed as cell viability at <= 0.41 uM for 48 hrs by MTT assay; assay type: functional; conditions: up to 0.41 µM

Cc1c(Cl)cccc1Nc1ccc(F)cc1C(=O)NCc1ccc(O)c(O)c1
Activity [1]: Non-Toxic
Activity (CT26.WT [2]): Active
Activity (HGC-27 [3]): Active
Activity (CT26.WT [4]): Active
half-life [5]: 1.56 h
Activity (RAW264.7 [6]): Active
Activity (RAW264.7 [7]): > 80%
AUC(0-t) at 8 h [8]: 18200 ng·h/mL
Activity (RKO [9]): Active
AUC(0-inf) [10]: 18600 ng·h/mL
Activity (RKO [11]): 55.94%
Activity (HGC-27 [12]): Active
IC50 (RKO [13]): 3.12 µM
Activity [14]: Non-Toxic
Activity (HGC-27 [15]): Active
Activity (HGC-27 [16]): Active
IC50 (DNA topoisomerase 1): 4.42 µM
Activity [17]: Non-Toxic
Activity (RAW264.7 [18]): Active
Activity (HGC-27 [19]): Active
Activity (RKO [20]): Active
Activity (RKO [21]): Active
Activity (CT26.WT [22]): Active
Activity (RKO [23]): Active
Activity [24]: Non-Toxic
Activity (RKO [25]): 33.77%
Activity (RKO [26]): >80%
